A short description of the data set: Granisetron in human plasma after APF530 (clinical pharmacokinetics). Type of data set: in vivo. Particulars: chemo-patients, human trials (FIGS. 3 and 4).

Consider `CN1C2CCCC1CC(NC(=O)c1nn(C)c3ccccc13)C2` (stereo not shown) [granisetron], for which the clearance of granisetron result is on record as “impaired clearance”.

For the origin of these results see US20140107226A1, “METHODS FOR ENHANCING STABILITY OF POLYORTHOESTERS AND THEIR FORMULATIONS” (A.P. PHARMA, INC., priority 2008, published 2014).
